Measurements as given in US9828342B2, “Isatin derivatives, pharmaceutical compositions thereof, and methods of use thereof” (CITY OF HOPE, priority 2012, dated 2017).
Read-outs that look alike come from different tables or passages of the source.

Tests used:
AKT = experiment: Immunoblot of AKT phosphorylation in A2058 cells; type: cell-based, human; details: A2058, 0.5-5 μM, 4 hr, vs negative control, concentration-associated
Description: (§1) A2058 melanoma cells were incubated in complete growth medium in 100 mm petri dishes (1×10^6 cells per dish) for 24 hr. Compound 2 was added at a concentration of 0.5 μM, 1.0 μM, 2.5 μM, and 5 μM respectively. Cell samples that were not added any Compound 2 were negative controls. After 4 hr, cells were lysed using Laemmli buffer. Differences in the phosphorylation of Her2/Neu, Jak2, Src, Stat3, AKT, and Erk1/2 were determined by immunoblot analysis (FIG. 14a).
as §1, with “of” for “of 0.5 μM, 1.0 μM, 2.5 μM, and”, “μM.” for “μM respectively.”, “Cells” for “After 4 hr, cells”, “buffer 0.5 hr, 1 hr, 2 hr, 4 hr, 6 hr and 24 hr after treatment.” for “buffer.”, “of” for “of Her2/Neu,”, “14b).” for “14a).”

[1] = tested on: OVCAR5 ovarian cancer cells; experiment: MTS cell viability assay in OVCAR5 ovarian cancer cells; type: cell-based; details: Homo sapiens, OVCAR-5, OVCAR5, 48 hr, 1% DMSO
Description: (§2) Each type of cells (5,000 or 10,000 cells/well) were treated with different concentration (0.1 μM to 20 μM in 1% DMSO of cisplatin or Compound 2, 9, 12, 16 or 22 respectively for 48 hr). Then, MTS assays for cell viability were carried out to determine the IC50 values. Four samples were tested for each test compound at each concentration for each type of cells, and the averaged data were shown in Table 4 and FIGS. 6-8.

[2] = tested on: DU145 prostate cancer cells; experiment: MTS cell viability assay in DU145 prostate cancer cells; type: cell-based
Description: (§3) Then, MTS assays for cell viability were carried out to determine the IC50 values. Four samples were tested for each isatin derivative at each concentration in each cell line, and the averaged data were shown in Table 2a and FIGS. 1˜4.
(§4) IC50 of values of isatin derivatives Compounds 101˜123 were determined in cancer cell lines DU145 and A2058 respectively.

Src = experiment: Immunoblot of Src phosphorylation in A2058 cells; type: cell-based, human; details: A2058, 0.5-5 μM, 4 hr, vs negative control, concentration-associated
Description: as §1
as §1, with “of” for “of 0.5 μM, 1.0 μM, 2.5 μM, and”, “μM.” for “μM respectively.”, “Cells” for “After 4 hr, cells”, “buffer 0.5 hr, 1 hr, 2 hr, 4 hr, 6 hr and 24 hr after treatment.” for “buffer.”, “of” for “of Her2/Neu,”, “14b).” for “14a).”

Stat3 = experiment: Immunoblot of Stat3 phosphorylation in A2058 cells; type: cell-based, human; details: A2058, 0.5-5 μM, 4 hr, vs negative control, concentration-associated
Description: as §1
as §1, with “of” for “of 0.5 μM, 1.0 μM, 2.5 μM, and”, “μM.” for “μM respectively.”, “Cells” for “After 4 hr, cells”, “buffer 0.5 hr, 1 hr, 2 hr, 4 hr, 6 hr and 24 hr after treatment.” for “buffer.”, “of” for “of Her2/Neu,”, “14b).” for “14a).”

Erk1/2 [3] = experiment: Immunoblot of Erk1/2 phosphorylation in DU145 cells; type: cell-based; details: DU145, 0.5-5 μM, 4 hr, EGF 10 ng/ml, vs negative control, concentration-associated
Description: as §1, with “DU145 prostate cancer” for “A2058 melanoma”, “hr, EGF (10 ng/ml final concentration) was added to culture media and” for “hr,”, “Erk1/2” for “Her2/Neu, Jak2, Src, Stat3, AKT,”, “EGFR” for “Erk1/2”, “13).” for “14a).”

[4] = tested on: PANC-1 pancreatic cancer cells; experiment: MTS cell viability assay in PANC-1 pancreatic cancer cells; type: cell-based; details: Homo sapiens, PANC-1, 48 hr, 1% DMSO
Description: as §2, with “to 10” for “to 20”, “of Compound 2” for “of cisplatin”, “Compound” for “Compound 2, 9, 12, 16 or”, “Table 3” for “Table 4”, “and FIG. 5.” for “and FIGS. 6-8.”

[5] = tested on: SKOV3 ovarian cancer cells; experiment: MTS cell viability assay in SKOV3 ovarian cancer cells; type: cell-based; details: Homo sapiens, SK-OV-3, SKOV3, 48 hr, 1% DMSO
Description: as §2

Jak2 = experiment: Immunoblot of Jak2 phosphorylation in A2058 cells; type: cell-based, human; details: A2058, 0.5-5 μM, 4 hr, vs negative control, concentration-associated
Description: as §1
as §1, with “of” for “of 0.5 μM, 1.0 μM, 2.5 μM, and”, “μM.” for “μM respectively.”, “Cells” for “After 4 hr, cells”, “buffer 0.5 hr, 1 hr, 2 hr, 4 hr, 6 hr and 24 hr after treatment.” for “buffer.”, “of” for “of Her2/Neu,”, “14b).” for “14a).”

[6] = tested on: A2058 human melanoma cells; experiment: MTS cell viability assay in A2058 melanoma cells; type: cell-based
Description: as §3, §4

Erk1/2 [7] = experiment: Immunoblot of Erk1/2 phosphorylation in A2058 cells; type: cell-based, human; details: A2058, 0.5-5 μM, 4 hr, vs negative control, concentration-associated
Description: as §1
as §1, with “of” for “of 0.5 μM, 1.0 μM, 2.5 μM, and”, “μM.” for “μM respectively.”, “Cells” for “After 4 hr, cells”, “buffer 0.5 hr, 1 hr, 2 hr, 4 hr, 6 hr and 24 hr after treatment.” for “buffer.”, “of” for “of Her2/Neu,”, “14b).” for “14a).”

Her2/Neu = experiment: Immunoblot of Her2/Neu phosphorylation in A2058 cells; type: cell-based, human; details: A2058, 0.5-5 μM, 4 hr, vs negative control, concentration-associated
Description: as §1

EGFR = experiment: Immunoblot of EGFR phosphorylation in DU145 cells; type: cell-based; details: DU145, 0.5-5 μM, 4 hr, EGF 10 ng/ml, vs negative control, concentration-associated
Description: as §1, with “DU145 prostate cancer” for “A2058 melanoma”, “hr, EGF (10 ng/ml final concentration) was added to culture media and” for “hr,”, “Erk1/2” for “Her2/Neu, Jak2, Src, Stat3, AKT,”, “EGFR” for “Erk1/2”, “13).” for “14a).”

[8] = tested on: A2780 cisplatin-resistant ovarian cancer cells; experiment: MTS cell viability assay in A2780 cisplatin-resistant ovarian cancer cells; type: cell-based; details: for IC50: A2780 cisplatin-resistant, 48 hr, 1% DMSO, MTS
Description: as §2

[9] = tested on: OCI-Ly3 non-Hodgkins B cell lymphoma cells; experiment: MTS cell viability assay in OCI-Ly3 lymphoma cells; type: cell-based; details: Homo sapiens, OCI-Ly3, 48 hr, 1% DMSO
Description: as §2, with “concentration (0.01” for “concentration (0.1”, “to 5” for “to 20”, “of the test compound” for “of cisplatin or Compound 2, 9, 12, 16 or 22”, “Table 5” for “Table 4”, “FIGS. 10˜12.” for “FIGS. 6-8.”

tubulin = experiment: In vitro tubulin polymerization assay (HTS-Tubulin polymerization assay kit); type: biochemical; details: 1 μM, 4 mg/mL tubulin, 1 hr, 37° C.
Description: To determine whether Compound 22 inhibits tubulin formation in vitro, HTS-Tubulin polymerization assay kits (cytoskeleton) were used. The assay procedure was performed using the manufacturer's protocol. Briefly, each 4 mg tubulin was resuspended with 1 mL of the cold G-PEM (80 mM PIPES pH6.9, 2 mM MgCl2, 0.5 mM EGTA) buffer to make the final concentration of 4 mg/mL. The reaction volume was 100 μL. Tubulin polymerization was monitored with the kinetic mode at […] for 1 hr at 37° C. […] Together, compound 22 is a promising lead compound to develop new anticancer drugs as new class of microtubule inhibitors.

[10] = tested on: Anaplastic Large T cell lymphoma cells; experiment: MTS cell viability assay in anaplastic large T cell lymphoma cells; type: cell-based; details: 48 hr, 1% DMSO
Description: as §2, with “concentration (0.01” for “concentration (0.1”, “to 5” for “to 20”, “of the test compound” for “of cisplatin or Compound 2, 9, 12, 16 or 22”, “Table 5” for “Table 4”, “FIGS. 10˜12.” for “FIGS. 6-8.”

Cdc25C = experiment: Immunoblot of Cdc25C phosphorylation in DU145 and A2058 cells; type: cell-based; details: DU145 or A2058 cells, 0.1, 1 or 2.5 μM, 24 hr, higher dosage
Description: (§5) DU145 prostate cancer cells or A2058 melanoma cells were incubated with Compound 22 at a concentration of 0.1, 1, or 2.5 μM or DMSO for 24 hr. Cells were lysed using Laemmli buffer. The differences in the content of Cyclin B1 and phosphorylation of Cdc25C were determined by immunoblot analysis.

[11] = tested on: Daudi B Cell Burkitt lymphoma cells; experiment: MTS cell viability assay in Daudi lymphoma cells; type: cell-based; details: Homo sapiens, 48 hr, 1% DMSO
Description: as §2, with “concentration (0.01” for “concentration (0.1”, “to 5” for “to 20”, “of the test compound” for “of cisplatin or Compound 2, 9, 12, 16 or 22”, “Table 5” for “Table 4”, “FIGS. 10˜12.” for “FIGS. 6-8.”

Cyclin B1 = experiment: Immunoblot of Cyclin B1 content in DU145 and A2058 cells; type: cell-based; details: DU145 or A2058 cells, 0.1, 1 or 2.5 μM, 24 hr, higher dosage
Description: as §5

[12] = tested on: PaCa2 pancreatic cancer cells; experiment: MTS cell viability assay in PaCa2 pancreatic cancer cells; type: cell-based; details: PaCa-2, PaCa2, 48 hr, 1% DMSO
Description: as §2, with “to 10” for “to 20”, “of Compound 2” for “of cisplatin”, “Compound” for “Compound 2, 9, 12, 16 or”, “Table 3” for “Table 4”, “and FIG. 5.” for “and FIGS. 6-8.”

[13] = tested on: Ly-3 lymphoma SQ xenografts; experiment: Ly-3 lymphoma SQ xenografts in mice; type: in vivo; details: oral, 100 mg/kg once a day, 7th treatment day, P=0.03 vs vehicle
Description: Ly-3 lymphoma cells (1×10^7) were subcutaneously injected to II-2 rg(ko)/NOD-SCID female mice. 7 mice were treated with vehicle as the control group once a day. 7 mice were treated with Compound 109 as the treatment group by oral administration at 100 mg/kg dose, once a day. Mice were euthanized at the 7th treatment day by IACUC of the Beckman Research Institute of City of Hope. In the figure, * means P=0.03 wherein P values less than 0.05 were considered statistically significant.

[14] = Homo sapiens, DU-145, 48 h, DU145, 48 hr, 0.05 to 10 μM in 1% DMSO, MTS (Table 2a), read-out: DU145 IC50
[15] = Homo sapiens, A2058, 48 h, 0.05 to 10 μM in 1% DMSO, MTS (Table 2a), read-out: A2058 IC50

O=C1C(=O)N(Cc2ccccc2)c2ccc(-c3cccnc3)cc21 [Compound 2]
phosphorylation of AKT (AKT): less phosphorylations
IC50 [1]: 800 nM
IC50 [2, 14]: 790 nM
phosphorylation of Src (Src): less phosphorylations
phosphorylation of Stat3 (Stat3): less phosphorylations
phosphorylation of Erk1/2 (Erk1/2 [3]): less phosphorylations
IC50 [4]: 970 nM
IC50 [5]: > 5000 nM
phosphorylation of Jak2 (Jak2): less phosphorylations
IC50 [6, 15]: 780 nM
phosphorylation of Erk1/2 (Erk1/2 [7]): less phosphorylations
phosphorylation of Her2/Neu (Her2/Neu): less phosphorylations
phosphorylation of EGFR (EGFR): less phosphorylations

O=C1C(=O)N(CCCc2ccccc2)c2ccc(-c3cccnc3)cc21 [Compound 9]
IC50 [1]: 840 nM
IC50 [8]: 390 nM
viability of A2780 cisplatin-resistant ovarian cancer cells in comparison of cisplatin ([8]; FIG. 9, compared with cisplatin): significantly reduced the viability
IC50 ([8]; Homo sapiens, A2780, 48 h): 750 nM
IC50 [2, 14]: 470 nM
IC50 [9]: 260 nM
IC50 [6, 15]: 660 nM

O=C1C(=O)N(C/C=C/c2ccccc2)c2ccc(-c3cccnc3)cc21 [Compound 22]
IC50 [1]: 340 nM
IC50 ([8]; Homo sapiens, A2780, 48 h): 440 nM
IC50 [2, 14]: 300 nM
tubulin polymerization in vitro (tubulin): substantially inhibited tubulin polymerization
IC50 [10]: 130 nM
phosphorylation of Cdc25C (Cdc25C): less phosphorylation of Cdc25C
IC50 [9]: 39 nM
IC50 [4]: 100 nM
IC50 [11]: 38 nM
IC50 [6, 15]: 210 nM
content of Cyclin B1 (Cyclin B1): increased amount of Cyclin B1
IC50 [12]: 96 nM

O=C1C(=O)N(C/C=C/c2cccnc2)c2ccc(-c3cccnc3)cc21 [Compound 109]
IC50 ([2]; DU145, compound in DMSO, 48 hr, MTS (Table 2b), read-out: IC50 value, DMSO, DU145): 480 nM
IC50 ([2]; Homo sapiens, DU-145, 48 h, DU145, compound in water, 48 hr, MTS (Table 2b), read-out: IC50 value, Water, DU145): 630 nM
IC50 [9]: 63 nM
efficacy (tumor volume) in Ly-3 lymphoma SQ xenografts [13]: statistically significantly showed efficacy
IC50 ([6]; A2058, compound in DMSO, 48 hr, MTS (Table 2b), read-out: IC50 value, DMSO, A2058): 580 nM
IC50 ([6]; Homo sapiens, A2058, 48 h, A2058, compound in water, 48 hr, MTS (Table 2b), read-out: IC50 value, Water, A2058): 1000 nM
